Data taken from ChEMBL document CHEMBL1909046, “DrugMatrix in vitro pharmacology data”.
pIC50, pKi: −log10 of the molar value.

Legend:
[1] = biological target: 5-hydroxytryptamine receptor 2B (Homo sapiens, UniProt P41595); format: cell membranes, CHO-K1, Membrane; conditions: for IC50: cho-k1; for pIC50: read-out: IC50; for pKi: read-out: Ki; as to all read-outs here: in other assays of this panel Not Active means under 50% inhibition at 10 µM
[2] = DRUGMATRIX: GABAA, Flunitrazepam, Central radioligand binding (ligand: [3H] Flunitrazepam); format: cell membranes, Rattus norvegicus, Wistar, Brain, Membrane; conditions: Not Active = under 50% inhibition at 10 µM
[3] = DRUGMATRIX: GABAA, Chloride Channel, TBOB radioligand binding (ligand: [3H] TBOB); format: cell membranes, Rattus norvegicus, Wistar, Cerebral cortex, Membrane; conditions: Not Active = under 50% inhibition at 10 µM
[4] = biological target: T1, Neuropeptide Y receptor type 2 (Homo sapiens, UniProt P49146); format: cell membranes, Membrane; conditions: kan-ts; also: in other assays of this panel Not Active means under 50% inhibition at 10 µM
T1 sequence (P49146 whole entry): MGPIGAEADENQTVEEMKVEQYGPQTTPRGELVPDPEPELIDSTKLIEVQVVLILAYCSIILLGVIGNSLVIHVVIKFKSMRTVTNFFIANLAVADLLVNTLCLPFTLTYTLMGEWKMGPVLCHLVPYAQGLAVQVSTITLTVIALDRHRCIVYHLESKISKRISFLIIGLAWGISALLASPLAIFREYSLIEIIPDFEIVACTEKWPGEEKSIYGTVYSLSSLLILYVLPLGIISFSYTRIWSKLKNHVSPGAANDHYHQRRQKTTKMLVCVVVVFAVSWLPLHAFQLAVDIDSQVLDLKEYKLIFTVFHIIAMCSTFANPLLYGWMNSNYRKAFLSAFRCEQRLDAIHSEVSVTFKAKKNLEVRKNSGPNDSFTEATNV

[5] = DRUGMATRIX: Phosphodiesterase PDE4 enzyme inhibition (substrate: [3H]cAMP + cAMP); conditions: u-937; Not Active = under 50% inhibition at 10 µM
Neutrophil elastase = biological target: T2, Neutrophil elastase (Homo sapiens, UniProt P08246); format: tissue-based;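 also: inhibition of neutrophil elastase enzyme activity, measured with a p-nitroanilide-linked peptide substrate; in other assays of this panel Not Active means under 50% inhibition at 10 µM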
T2 sequence (P08246 whole entry): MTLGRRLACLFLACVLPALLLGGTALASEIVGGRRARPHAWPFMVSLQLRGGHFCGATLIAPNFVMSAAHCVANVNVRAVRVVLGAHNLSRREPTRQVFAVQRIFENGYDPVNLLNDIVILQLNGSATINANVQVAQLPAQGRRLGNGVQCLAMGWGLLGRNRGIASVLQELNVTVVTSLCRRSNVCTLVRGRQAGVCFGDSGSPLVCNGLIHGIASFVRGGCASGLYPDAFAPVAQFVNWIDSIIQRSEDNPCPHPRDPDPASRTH

Interstitial collagenase = biological target: T3, Interstitial collagenase (Homo sapiens, UniProt P03956); assay: biochemical; format: tissue-based, Rheumatoid synovial fibroblasts;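 also: MMP-1 enzyme inhibition assay using a peptide substrate; in other assays of this panel Not Active means under 50% inhibition at 10 µM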
T3 sequence (P03956 whole entry): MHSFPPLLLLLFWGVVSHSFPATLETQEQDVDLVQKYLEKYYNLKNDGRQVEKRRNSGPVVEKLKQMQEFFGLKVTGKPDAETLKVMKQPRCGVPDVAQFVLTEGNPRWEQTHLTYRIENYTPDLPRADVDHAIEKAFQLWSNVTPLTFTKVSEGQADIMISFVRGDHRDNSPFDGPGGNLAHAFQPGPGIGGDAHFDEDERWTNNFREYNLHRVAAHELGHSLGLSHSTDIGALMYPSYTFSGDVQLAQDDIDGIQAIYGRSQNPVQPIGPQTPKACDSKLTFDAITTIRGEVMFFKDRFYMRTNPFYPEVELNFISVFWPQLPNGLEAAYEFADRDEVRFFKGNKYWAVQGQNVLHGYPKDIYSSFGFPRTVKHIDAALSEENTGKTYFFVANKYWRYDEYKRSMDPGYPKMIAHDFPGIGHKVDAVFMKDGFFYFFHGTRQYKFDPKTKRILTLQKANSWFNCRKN

5-hydroxytryptamine receptor 2B, sequence (P41595 whole entry): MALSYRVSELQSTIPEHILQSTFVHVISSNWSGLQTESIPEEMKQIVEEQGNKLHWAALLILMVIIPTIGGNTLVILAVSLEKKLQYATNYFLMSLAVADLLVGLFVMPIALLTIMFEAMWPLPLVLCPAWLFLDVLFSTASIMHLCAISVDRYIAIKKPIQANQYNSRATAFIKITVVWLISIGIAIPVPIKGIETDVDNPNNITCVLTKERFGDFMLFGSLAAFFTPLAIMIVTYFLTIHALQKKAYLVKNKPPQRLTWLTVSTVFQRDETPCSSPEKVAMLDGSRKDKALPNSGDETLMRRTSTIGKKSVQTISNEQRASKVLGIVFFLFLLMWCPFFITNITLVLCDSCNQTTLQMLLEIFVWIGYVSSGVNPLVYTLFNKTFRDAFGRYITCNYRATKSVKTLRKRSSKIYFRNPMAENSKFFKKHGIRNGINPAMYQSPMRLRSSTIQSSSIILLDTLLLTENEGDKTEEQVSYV

Compound	IC50 [1]	IC50 [2]	Ki [2]	IC50 [3]	Ki [3]	IC50 [4]	IC50 [5]	Ki [5]	IC50 (Neutrophil elastase)	IC50 (Interstitial collagenase)	pIC50 [1]	pKi [1]	pIC50 ([2]; read-out: IC50)	pKi ([2]; read-out: Ki)
O=C(O)c1cc(-c2ccc(F)cc2F)ccc1O [DIFLUNISAL]	Not Active	Not Active	Not Active	Not Active	Not Active	Not Active	Not Active	Not Active	Not Active	Not Active	–	–	–	–
CCn1cc(C(=O)O)c(=O)c2cc(F)c(N3CCNC(C)C3)c(F)c21 (stereo unspecified) [LOMEFLOXACIN]	Not Active	Not Active	Not Active	Not Active	Not Active	Not Active	Not Active	Not Active	Not Active	Not Active	–	–	–	–
CN(C)C(=O)Oc1cccc([N+](C)(C)C)c1.[Br-] [NEOSTIGMINE BROMIDE]	Not Active	Not Active	Not Active	Not Active	Not Active	Not Active	Not Active	Not Active	Not Active	Not Active	–	–	–	–
CN1CCCC(CN2c3ccccc3Sc3ccccc32)C1 (stereo unspecified) [MEPAZINE]	–	Not Active	Not Active	Not Active	Not Active	Not Active	Not Active	Not Active	Not Active	Not Active	6.29	6.49	–	–
ClC(Cl)(Cl)Cl [CARBON TETRACHLORIDE]	Not Active	Not Active	Not Active	Not Active	Not Active	Not Active	Not Active	Not Active	Not Active	Not Active	–	–	–	–
CCN(CC)CCCC(C)Nc1c2ccc(Cl)cc2nc2ccc(OC)cc12 (stereo unspecified) [QUINACRINE]	Not Active	Not Active	Not Active	Not Active	Not Active	Not Active	Not Active	Not Active	Not Active	Not Active	–	–	–	–
CC[C@H]1[C@@H]2C[C@H]3[C@@H]4N(C)c5ccccc5[C@]45C[C@@H]([C@@H]2[C@H]5O)N3[C@@H]1O [AJMALINE]	Not Active	Not Active	Not Active	Not Active	Not Active	Not Active	Not Active	Not Active	Not Active	Not Active	–	–	–	–
C[C@H]1[C@H](NC(=O)/C(=N\OC(C)(C)C(=O)O)c2csc(N)n2)C(=O)N1S(=O)(=O)O [AZTREONAM]	Not Active	Not Active	Not Active	Not Active	Not Active	Not Active	Not Active	Not Active	Not Active	Not Active	–	–	–	–
CO/N=C(\C(=O)N[C@@H]1C(=O)N2C(C(=O)O)=C(COC(C)=O)CS[C@H]12)c1csc(N)n1 [CEFOTAXIME]	Not Active	Not Active	Not Active	Not Active	Not Active	Not Active	Not Active	Not Active	Not Active	Not Active	–	–	–	–
CC(C)c1c(C(=O)Nc2ccccc2)c(-c2ccccc2)c(-c2ccc(F)cc2)n1CC[C@@H](O)C[C@@H](O)CC(=O)O [ATORVASTATIN]	Not Active	Not Active	Not Active	Not Active	Not Active	Not Active	Not Active	Not Active	Not Active	Not Active	–	–	–	–
CC(C)C[C@H]1C(=O)N2CCC[C@H]2[C@]2(O)O[C@](NC(=O)[C@@H]3C=C4c5cccc6[nH]cc(c56)C[C@H]4N(C)C3)(C(C)C)C(=O)N12 [ERGOCRYPTINE]	–	Not Active	Not Active	Not Active	Not Active	Not Active	Not Active	Not Active	Not Active	Not Active	7.89	8.09	–	–
CCN(C(C)=O)c1cccc(-c2ccnc3c(C#N)cnn23)c1 [ZALEPLON]	Not Active	–	–	Not Active	Not Active	Not Active	Not Active	Not Active	Not Active	Not Active	–	–	6.39	6.47
N[C@@H](Cn1ccc(=O)c(O)c1)C(=O)O [L-MIMOSINE]	Not Active	Not Active	Not Active	Not Active	Not Active	Not Active	Not Active	Not Active	Not Active	Not Active	–	–	–	–
Nc1cc(-c2ccncc2)c[nH]c1=O [INAMRINONE]	Not Active	Not Active	Not Active	Not Active	Not Active	Not Active	Not Active	Not Active	Not Active	Not Active	–	–	–	–
NC(=O)c1cccc(N)c1 [3-AMINOBENZAMIDE]	Not Active	Not Active	Not Active	Not Active	Not Active	Not Active	Not Active	Not Active	Not Active	Not Active	–	–	–	–
NC(=O)c1cccnc1 [NIACINAMIDE]	Not Active	Not Active	Not Active	Not Active	Not Active	Not Active	Not Active	Not Active	Not Active	Not Active	–	–	–	–
CCC1=C(C)CN(C(=O)NCCc2ccc(S(=O)(=O)NC(=O)N[C@H]3CC[C@H](C)CC3)cc2)C1=O [GLIMEPIRIDE]	Not Active	Not Active	Not Active	Not Active	Not Active	Not Active	Not Active	Not Active	Not Active	Not Active	–	–	–	–
CC(C)NCC(O)c1ccccc1Cl (stereo unspecified) [CLORPRENALINE]	Not Active	Not Active	Not Active	Not Active	Not Active	Not Active	Not Active	Not Active	Not Active	Not Active	–	–	–	–
CC(=O)OCC(=O)[C@@]12OC(C)(C)O[C@@H]1C[C@H]1[C@@H]3C[C@H](F)C4=CC(=O)C=C[C@]4(C)[C@@]3(F)[C@@H](O)C[C@@]12C [FLUOCINONIDE]	Not Active	Not Active	Not Active	Not Active	Not Active	Not Active	Not Active	Not Active	Not Active	Not Active	–	–	–	–
COc1cccc2c1C(=O)c1c(O)c3c(c(O)c1C2=O)C[C@@](O)(C(C)=O)C[C@@H]3O[C@H]1C[C@H](N)[C@H](O)[C@H](C)O1 [DAUNORUBICIN]	Not Active	Not Active	Not Active	Not Active	Not Active	Not Active	Not Active	Not Active	Not Active	Not Active	–	–	–	–
COc1ccccc1N	Not Active	Not Active	Not Active	Not Active	Not Active	Not Active	Not Active	Not Active	Not Active	Not Active	–	–	–	–
CN(C)CCC=C1c2ccccc2CCc2ccccc21 [AMITRIPTYLINE]	–	Not Active	Not Active	Not Active	Not Active	Not Active	Not Active	Not Active	Not Active	Not Active	–	–	–	–
